# According to US9271991B2, “Trimegestone (TMG) for treatment of preterm birth” (Dignity Health, priority 2010, dated 2016):
# Where “and” joins values, the source holds several entries; their conditions need not be identical. Equal entries are not always repeated. Entries after “also recorded” stand apart in the source; their conditions may differ.
# Tests used:
# [1] = tested on: pregnant rats (term delivery); experiment: Delay of term delivery in pregnant rats; format: in vivo, Sprague-Dawley rats
# Excerpt: Timed-pregnant Sprague-Dawley rats (200-250 g) from Charles-River Laboratories (Wilmington, Mass., USA) were delivered to our animal care facilities on day 15 of gestation (day 1 being the day when a sperm plug was observed). The animals were housed separately, with free access to food and water and maintained on a constant 12-hour light-dark cycle. Control pregnant rats were spontaneously delivering on day 22 of gestation. The animals were randomly allocated into groups and sacrificed by carbon dioxide inhalation on day 5 postpartum or on day 25 of gestation in the groups with delayed delivery.
# Pregnant rats (N=6 per group) were treated, when not otherwise mentioned, from day 20 of gestation until delivery. Single daily treatments were performed at 8 am and twice a day treatments at 8 am and 8 pm. Treatment began daily on day 20 of gestation with vehicles or: a) Topical P4 at various doses (4-30 mg/day, vehicle (v)=fish oil) or topical TMG ([…], v=fish oil; b) Subcutaneous (s.c.) P4 (0.5-4 mg/day, v=sesame oil) or s.c. TMG (0.5-2 mg/day, v=benzyl benzoate (BB) and castor oil (CO), 1:4). Delivery times were observed.
# Subcutaneous treatments. All daily injections were by the subcutaneous route (s.c) in […] for the P4 treatments and benzyl benzoate (BB, 1 part): castor oil (CO, 4 parts) for the TMG group. P4 and TMG had dose ranges of 0.5 mg-4 mg per day and 0.5 mg-2 mg per day, respectively. Vehicles only are used in the control groups.
# Topical treatments. Topical P4 and TMG (in fish oil and benzyl benzoate:castor oil (1:4), respectively) treatments were applied to the shaved back of the rat twice a day For topical treatments of P4 and TMG, dose range from 2 mg-30 mg per day and 0.005 to 0.5 mg per day, respectively.
# Times of delivery of controls and treatment groups were determined as hours after 8 a.m. on day 22 of gestation. […] Delays in delivery less than 80 hours were calculated as less than 100% inhibition. The expulsion of a single pup was noted as delivery. Control groups spontaneously delivered on day 22 of gestation.
# The Student's t test was used to compare the treatment groups with its specific control groups to determine the differences in delivery times. A 2-tailed probability value of P<0.05 was considered statistically significant.
# [2] = tested on: rat pups of treated pregnant rats; experiment: Sex of pups / fetuses of TMG-treated pregnant rats; format: in vivo
# Procedure: To determine the effects of TMG on progeny sex ratios, pregnant rats (N=9 per group) were treated daily beginning on day 13 of gestation with TMG (in benzyl benzoate+castor oil, vehicle) or with vehicle only. […] Pups were then placed with surrogate mother also on day 22 of gestation whose pups were sacrificed.
# As described, the sex of the pups was evaluated 21 days post-partum by examining external genitalia as well as distance between rectum and genitalia.
# [3] = tested on: offspring of TMG-treated rats; experiment: Fertility of offspring of TMG-treated pregnant rats; format: in vivo, rat; conditions: offspring bred at 5 months with untreated partners, n=6 per sex
# Excerpt: To determine the effects of TMG on fertility the following procedure was followed. When pups from TMG-treated pregnant rats were of breeding age (5 months) the females were placed with normal (untreated) males for 6 days. Similarly, male pups from TMG-treated rats were placed with normal (untreated) females for 6 days.
# [4] = tested on: pregnant guinea pigs (preterm delivery); experiment: PGE2-induced preterm delivery in pregnant guinea pigs; format: in vivo, Hartley guinea pigs; conditions: sacrifice day 48
# Excerpt: Pregnant guinea pigs, another model of pregnancy are also utilized as they more closely resemble the endocrine control of human pregnancy with progesterone levels in pregnancy maintained by the placenta as opposed to the ovaries, which is observed in pregnant rats.
# Pregnant Hartley guinea pigs arrived at our facilities at 31-35 days gestation and housed in pairs, with free access to food and water and also maintained on a constant 12-hour light-dark cycle. The animals were euthanized with a combination of xylazine (Gemini; Burns Veterinary Supply Inc, Rockville Center, N.Y.) and ketamine HCL (Ketaset; Fort Dodge Laboratories Inc, Fort Dodge, Iowa). All procedures were approved by the Animal Care and Use Committee of the St. Joseph's Hospital and Medical Center in Phoenix, Ariz.
# Pregnant guinea pigs (N=4-6 per group) were allocated into 4 groups (Vehicle (v) only, TMG only, PGE2 only, PGE2+TMG). PGE2 administration (3 mg/day s.c, v=saline) began daily on day 46 to day 47 of gestation. TMG administration (4 mg/day s.c v=BB:CO) began daily on day 44 until day 47 of gestation. All guinea pigs were sacrificed on day 48.
# glucocorticoid receptor = molecular target: T1, glucocorticoid receptor (Homo sapiens, UniProt P04150); conditions: cited from earlier work
# T1 sequence (P04150 1-777): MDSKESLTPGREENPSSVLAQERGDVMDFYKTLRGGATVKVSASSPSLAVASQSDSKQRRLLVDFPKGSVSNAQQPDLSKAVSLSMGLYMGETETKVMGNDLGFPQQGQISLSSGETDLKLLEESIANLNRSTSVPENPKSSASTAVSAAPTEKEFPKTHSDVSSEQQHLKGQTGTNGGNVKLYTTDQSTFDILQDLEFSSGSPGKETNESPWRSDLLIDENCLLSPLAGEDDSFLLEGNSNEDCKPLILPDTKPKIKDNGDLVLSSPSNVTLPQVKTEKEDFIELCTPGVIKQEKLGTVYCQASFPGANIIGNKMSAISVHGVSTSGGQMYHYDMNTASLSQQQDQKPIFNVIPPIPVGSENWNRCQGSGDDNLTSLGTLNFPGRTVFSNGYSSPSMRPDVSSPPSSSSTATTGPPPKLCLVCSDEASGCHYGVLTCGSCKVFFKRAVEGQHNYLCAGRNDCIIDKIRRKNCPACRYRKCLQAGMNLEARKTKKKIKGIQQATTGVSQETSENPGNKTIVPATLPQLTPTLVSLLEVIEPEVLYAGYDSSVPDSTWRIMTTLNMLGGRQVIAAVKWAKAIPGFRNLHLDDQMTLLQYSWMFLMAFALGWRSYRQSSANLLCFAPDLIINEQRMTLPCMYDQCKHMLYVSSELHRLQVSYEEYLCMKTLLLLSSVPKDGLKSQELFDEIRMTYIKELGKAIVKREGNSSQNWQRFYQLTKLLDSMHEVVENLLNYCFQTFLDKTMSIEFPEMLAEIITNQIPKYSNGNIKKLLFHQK
# [5] = tested on: MMP expression (MMP-1, MMP-3) in cultured stromal cells; conditions: cited from earlier work
# [6] = species not stated; cited from earlier work
# [7] = pregnant rats, s.c. single daily treatment from day 20 of gestation
compound,measurement,setting,value
"C[C@H](O)C(=O)[C@@]1(C)CC[C@H]2[C@@H]3CCC4=CC(=O)CCC4=C3CC[C@@]21C [TMG, trimegestone]","dose for complete block of delivery (80 hour delay, 100 percent inhibition), subcutaneous",[1]; [7],0.5 mg
same,"dose for complete block of delivery, subcutaneous",[1]; [7],0.5 mg/day
same,"lower dose for complete block of term delivery compared to P4, subcutaneous","[1]; pregnant rats, s.c., 0.5 mg TMG vs. 2 mg P4, P<0.05",ca. 4 ×
same,"dose for complete block of delivery, topical","[1]; pregnant rats, topical twice a day from day 20 of gestation",0.1 mg/day
same,"lower dose for complete block of term delivery compared to P4, topically","[1]; pregnant rats, topical, 0.5 mg TMG vs. 15 mg P4, P<0.05",ca. 30 ×
same,potency in delaying delivery in rats compared to P4,[1]; topical and parenteral administration,more potent than P4
same,masculinizing or feminizing effects on the fetuses,"[2]; fetuses of treated rats, treatment from day 13 of pregnancy",lacks masculinization or feminization effects; also recorded: no masculinizing or feminizing effects
same,ratio of male to female pups versus vehicle control,"[2]; pregnant rats treated from day 13 of gestation, N=9",no significant difference; also recorded: non-significant differences
same,fertility of male and female offspring of treated rats,[3],not compromised
same,"guinea pigs delivered (preterm) / treated, substance alone","[4]; TMG 4 mg/day s.c. days 44-47, PGE2 3 mg/day days 46, 47",1/4
same,"guinea pigs delivered (preterm) / treated, TMG plus PGE2",[4]; TMG 4 mg/day s.c. days 44-47 and PGE2 3 mg/day days 46-47,None and 2/6
same,affinity to the glucocorticoid receptor,glucocorticoid receptor,low affinity
same,effect on MMP expression compared to P4,[5],differential effect on MMP expression; also recorded: tighter control of MMP expression
same,half-life,[6],17 h
